IC50 data for 26 compounds are collected here from patent US20250304567A1, “PYRROLIDIONE DERIVATIVES AS INHIBITORS OF NF KAPPA B INDUCING KINASE” (priority 2022, published 2025).

The structures appear in SMILES notation. Where two headings read alike, the source gives them in different places.

Assay [1] addresses Recombinant Human NF-kappaB-Inducing Kinase (NIK/MAP3K14) (Homo sapiens, UniProt Q99558). Kind of assay: Inhibition of auto-phosphorylation of recombinant human NIK/MAP3K14 activity (AlphaScreen). The assay is classed as biochemical. To be noted: 5 μM ATP, 1 nM NIK, average if tested more than once. An outline of the steps:
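AlphaScreen detection of phospho-Ser176/180 after 1 nM GST-NIK auto-phosphorylates for 2 h at 25 °C with 5 μM ATP (50 mM Tris pH 7.5, 0.7% DMSO). IC50s come from sigmoidal curves of % inhibition against log dose, using enzyme-free, ATP-free low controls and full-activity high controls.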

Assay [2] concerns p-IKKa levels in L363 (NIK translocated multiple myeloma) cells. Kind of assay: Effect of compounds on p-IKKa levels in L363 (NIK translocated multiple myeloma) cells (AlphaLISA SureFire Ultra p-IKKa Ser176/180). The assay is classed as cell-based, human. To be noted: average if tested more than once, read-out: Assay 2 IC50. An outline of the steps: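 Phospho-IKKa (Ser176/180) in lysates quantified by AlphaLISA after 6 h compound exposure, 11-point threefold dilutions, 0.3% DMSO. L363 cells were pre-stimulated overnight and assayed with 250 ng/ml BAFF and 10 μM MG132; % inhibition fitted sigmoidally for IC50, duplicate curves.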
(Bead proximity is the source of the signal in Alpha formats.)

The mark [3] stands for this setting: Homo sapiens, L-363, p-IKKa levels in L363 cells.

Recombinant Human NF-kappaB-Inducing Kinase (NIK/MAP3K14), sequence (Q99558 whole entry): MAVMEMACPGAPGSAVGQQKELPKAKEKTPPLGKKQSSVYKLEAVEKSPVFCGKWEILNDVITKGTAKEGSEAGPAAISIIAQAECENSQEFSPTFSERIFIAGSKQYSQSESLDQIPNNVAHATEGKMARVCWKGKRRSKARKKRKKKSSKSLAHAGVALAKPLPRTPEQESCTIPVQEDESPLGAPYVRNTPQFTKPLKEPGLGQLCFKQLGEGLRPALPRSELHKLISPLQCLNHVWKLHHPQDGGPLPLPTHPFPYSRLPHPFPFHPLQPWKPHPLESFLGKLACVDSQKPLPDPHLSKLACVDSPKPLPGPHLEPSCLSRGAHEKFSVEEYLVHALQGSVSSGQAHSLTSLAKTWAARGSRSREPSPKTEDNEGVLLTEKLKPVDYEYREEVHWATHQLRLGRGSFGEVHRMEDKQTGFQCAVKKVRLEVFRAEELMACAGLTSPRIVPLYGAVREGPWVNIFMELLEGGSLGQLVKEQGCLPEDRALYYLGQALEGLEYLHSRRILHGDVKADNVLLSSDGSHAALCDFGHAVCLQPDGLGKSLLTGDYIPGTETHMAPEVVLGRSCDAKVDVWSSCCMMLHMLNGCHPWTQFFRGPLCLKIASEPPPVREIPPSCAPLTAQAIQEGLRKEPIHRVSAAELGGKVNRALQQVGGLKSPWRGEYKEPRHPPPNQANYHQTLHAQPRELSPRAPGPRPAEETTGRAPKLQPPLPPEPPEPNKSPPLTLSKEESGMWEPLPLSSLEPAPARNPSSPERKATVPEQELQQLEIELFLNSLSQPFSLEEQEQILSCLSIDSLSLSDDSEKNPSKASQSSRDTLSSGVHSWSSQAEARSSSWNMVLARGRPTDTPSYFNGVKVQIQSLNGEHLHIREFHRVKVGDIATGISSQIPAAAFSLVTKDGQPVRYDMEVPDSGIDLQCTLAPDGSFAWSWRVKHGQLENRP

Usually IC50 stands for the concentration that gives 50% inhibition. Regarding `CN1CCC(O)(c2ccc(F)c(-c3csc(-c4ccnc(Nc5ccn(C)n5)n4)n3)c2)C1=O` (single isomer, unassigned) [Example 29, 3-(4-fluoro-3-(2-(2-((1-methyl-1H-pyrazol-3-yl)amino)pyrimidin-4-yl)thiazol-4-yl)phenyl)-3-hydroxy-1-methylpyrrolidin-2-one], the IC50 in assay [1] is 100 to 500 nM; in assay [2] (p-IKKa levels in L363 cells) it was > 501 nM.

On to `CN1CC[C@@](O)(c2cccc(-c3nc(-c4ccnc(Nc5ccn(-c6ccccc6)n5)n4)cs3)c2)C1=O` [Example 284, (R)-3-hydroxy-1-methyl-3-(3-(4-(2-((1-phenyl-1H-pyrazol-3-yl)amino)pyrimidin-4-yl)thiazol-2-yl)phenyl)pyrrolidin-2-one], for which the figures for the IC50 in assay [1] and in assay [2] (setting [3]) were < 100 nM and 100 to 500 nM, respectively.

In the case of `CN1CC[C@@](O)(c2cncc(-c3ccn(-c4ccnc(Nc5ccn(C)n5)n4)n3)c2)C1=O` (single isomer, unassigned) [Example 147, (R)-3-hydroxy-1-methyl-3-(5-(1-(2-((1-methyl-1H-pyrazol-3-yl)amino)pyrimidin-4-yl)-1H-pyrazol-3-yl)pyridin-3-yl)pyrrolidin-2-one or (S)-3-hydroxy-1-methyl-3-(5-(1-(2-((1-methyl-1H-pyrazol-3-yl)amino)pyrimidin-4-yl)-1H-pyrazol-3-yl)pyridin-3-yl)pyrrolidin-2-one], the IC50 is < 100 nM in assay [1] and 100 to 500 nM in assay [2] (setting [3]).

As for `CN1CC[C@@](O)(c2cccc(-c3nc(-c4ccnc(N[C@H]5CCC[C@@H](O)C5)n4)cs3)c2)C1=O` [Example 255], the IC50 in assay [1] was 100 to 500 nM; in assay [2] (setting [3]) it was > 501 nM.

With `CCCn1ccc(Nc2nccc(-c3csc(-c4cccc([C@]5(O)CCN(C)C5=O)c4)n3)n2)n1` [Example 67, (R)-3-hydroxy-1-methyl-3-(3-(4-(2-((1-propyl-1H-pyrazol-3-yl)amino)pyrimidin-4-yl)thiazol-2-yl)phenyl)pyrrolidin-2-one], the results for the IC50 in assay [1] and in assay [2] (setting [3]) were < 100 nM and 100 to 500 nM, respectively.

With `CN1CC[C@@](O)(c2cccc(-c3nc(-c4ccnc(N[C@H]5CCC[C@@H]5O)n4)cs3)c2)C1=O` [Example 108, (R)-3-hydroxy-3-(3-(4-(2-(((1S,2S)-2-hydroxycyclopentyl)amino)pyrimidin-4-yl)thiazol-2-yl)phenyl)-1-methylpyrrolidin-2-one], the results for the IC50 in assay [1] and in assay [2] (setting [3]) were 100 to 500 nM and > 501 nM, respectively.

`CN1CC[C@@](O)(c2cccc(-c3nc(-c4ccnc(Nc5cc6c(nn5)CCC6)n4)cs3)c2)C1=O` [Example 71, (R)-3-(3-(4-(2-((6,7-dihydro-5H-cyclopenta[c]pyridazin-3-yl)amino)pyrimidin-4-yl)thiazol-2-yl)phenyl)-3-hydroxy-1-methylpyrrolidin-2-one]: the half-maximal inhibitory concentration (IC50) in assay [1] was < 100 nM; in assay [2] (setting [3]), > 501 nM.

Take `CN1CC[C@@](O)(c2cccc(-c3nc(-c4ccnc(Nc5cnc6ccc(F)cn56)n4)cs3)c2)C1=O` [Example 279, (R)-3-(3-(4-(2-((6-Fluoroimidazo[1,2-a]pyridin-3-yl)amino)pyrimidin-4-yl)thiazol-2-yl)phenyl)-3-hydroxy-1-methylpyrrolidin-2-one]: the IC50 in assay [1] and in assay [2] (setting [3]) was > 501 nM throughout.

For `CN1CC[C@@](O)(c2cccc(-c3nc(-c4ccnc(Nc5ccnn5C5COC5)n4)cs3)c2)C1=O` [Example 160, (R)-3-Hydroxy-1-methyl-3-(3-(4-(2-((1-(oxetan-3-yl)-1H-pyrazol-5-yl)amino)pyrimidin-4-yl)thiazol-2-yl)phenyl)pyrrolidin-2-one], the IC50 in assay [1] was < 100 nM; in assay [2] (setting [3]) it was > 501 nM.

Take `CN1CC[C@@](O)(c2cccc(-c3csc(-c4ccnc(Nc5cnn(CC(F)F)c5)n4)n3)c2)C1=O` [Example 80, (R)-3-(3-(2-(2-((1-(2,2-difluoroethyl)-1H-pyrazol-4-yl)amino)pyrimidin-4-yl)thiazol-4-yl)phenyl)-3-hydroxy-1-methylpyrrolidin-2-one]: the IC50 in assay [1] and in assay [2] (setting [3]) was < 100 nM in each case.

Consider `CN1CC[C@@](O)(c2cc(-c3csc(-c4ccnc(Nc5ccn(C)n5)n4)n3)ccc2F)C1=O` (single isomer, unassigned) [Example 24], for which the IC50 in assay [1] and in assay [2] (setting [3]) was > 501 nM in each case.

On to `CN1CC[C@@](O)(c2cccc(-c3nc(-c4ccnc(N[C@H]5CC[C@@H](O)C5)n4)cs3)c2)C1=O` [Example 253], for which the IC50 was < 100 nM in assay [1] and > 501 nM in assay [2] (setting [3]).

Take `CN1CC[C@@](O)(c2cccc(-c3ccn(-c4ccnc(Nc5cnn(C)c5)n4)n3)c2)C1=O` [Example 90, (R)-3-hydroxy-1-methyl-3-(3-(1-(2-((1-methyl-1H-pyrazol-4-yl)amino)pyrimidin-4-yl)-1H-pyrazol-3-yl)phenyl)pyrrolidin-2-one]: the IC50 in assay [1] was < 100 nM; in assay [2] (setting [3]) it was 100 to 500 nM.

On to `Cc1ncc(C#N)cc1Nc1nccc(-c2csc(-c3cccc([C@]4(O)CCN(C)C4=O)c3)n2)n1` [Example 8, (R)-5-((4-(2-(3-(3-Hydroxy-1-methyl-2-oxopyrrolidin-3-yl)phenyl)thiazol-4-yl)pyrimidin-2-yl)amino)-6-methylnicotinonitrile], for which the IC50 in assay [1] was < 100 nM; in assay [2] (setting [3]), 100 to 500 nM.

Take `CN1CC[C@@](O)(c2cccc(-c3nc(-c4ccnc(Nc5ccn(C(F)(F)F)n5)n4)cs3)c2)C1=O` [Example 257, (R)-3-Hydroxy-1-methyl-3-(3-(4-(2-((1-(trifluoromethyl)-1H-pyrazol-3-yl)amino)pyrimidin-4-yl)thiazol-2-yl)phenyl)pyrrolidin-2-one]: the figures for the IC50 in assay [1] and in assay [2] (setting [3]) were < 100 nM and > 501 nM, respectively.

Take `COc1ncccc1Nc1nccc(-c2csc(-c3cccc([C@]4(O)CCN(C)C4=O)c3)n2)n1` [Example 7, (R)-3-Hydroxy-3-(3-(4-(2-((2-methoxypyridin-3-yl)amino)pyrimidin-4-yl)thiazol-2-yl)phenyl)-1-methylpyrrolidin-2-one]: the 50% inhibitory concentration (IC50) is < 100 nM in assay [1] and 100 to 500 nM in assay [2] (setting [3]).

As for `CN1CC(F)(F)C(O)(c2cccc(-c3nc(-c4ccnc(Nc5ccn(C)n5)n4)cs3)c2)C1=O` (single isomer, unassigned) [Example 36, 4,4-difluoro-3-hydroxy-1-methyl-3-(3-(4-(2-((1-methyl-1H-pyrazol-3-yl)amino)pyrimidin-4-yl)thiazol-2-yl)phenyl)pyrrolidin-2-one], the IC50 in assay [1] is < 100 nM; in assay [2] (p-IKKa levels in L363 cells), 100 to 500 nM.

As for `CN1CC[C@@](O)(c2cccc(-c3nc(-c4ccnc(Nc5cn(CC6CCC6)cn5)n4)cs3)c2)C1=O` [Example 125, (R)-3-(3-(4-(2-((1-(cyclobutylmethyl)-1H-imidazol-4-yl)amino)pyrimidin-4-yl)thiazol-2-yl)phenyl)-3-hydroxy-1-methylpyrrolidin-2-one], the half-inhibitory concentration (IC50) is < 100 nM in assay [1] and > 501 nM in assay [2] (setting [3]).

Turning to `Cc1cn(-c2ccnc(Nc3ccn(C)n3)n2)nc1-c1cc(C2(O)CCN(C)C2=O)ccn1` (racemic) [Example 32, (R, S)-3-Hydroxy-1-methyl-3-(2-(4-methyl-1-(2-((1-methyl-1H-pyrazol-3-yl)amino)pyrimidin-4-yl)-1H-pyrazol-3-yl)pyridin-4-yl)pyrrolidin-2-one], the figures for the IC50 in assay [1] and in assay [2] (setting [3]) were < 100 nM and > 501 nM, respectively.

For the compound `CN1CC(F)(F)C(O)(c2cccc(-c3nc(-c4ccnc(Nc5ccn(C)n5)n4)cs3)c2)C1=O` (single isomer, unassigned) [Example 35, 4,4-difluoro-3-hydroxy-1-methyl-3-(3-(4-(2-((1-methyl-1H-pyrazol-3-yl)amino)pyrimidin-4-yl)thiazol-2-yl)phenyl)pyrrolidin-2-one], the IC50 in assay [1] and in assay [2] (p-IKKa levels in L363 cells) was > 501 nM each time.

As to `CN1CC[C@@](O)(c2cccc(-c3nc(-c4ccnc(N[C@@H]5CCCc6cn[nH]c65)n4)cs3)c2)C1=O` (single isomer, unassigned) [Example 135], the IC50 in assay [1] and in assay [2] (setting [3]) was > 501 nM throughout.

Take `CC(Nc1nccc(-c2nc(-c3cccc(C4(O)CCN(C)C4=O)c3)cs2)n1)c1ccn(C)n1` (single isomer, unassigned) [Example 50]: the IC50 in assay [1] is 100 to 500 nM; in assay [2] (p-IKKa levels in L363 cells), > 501 nM.

In the case of `Cc1csc(Nc2nccc(-c3csc(-c4cccc([C@]5(O)CCN(C)C5=O)c4)n3)n2)n1` [Example 247], the figures for the IC50 in assay [1] and in assay [2] (setting [3]) were < 100 nM and 100 to 500 nM, respectively.

Turning to `CN1CC[C@@](O)(c2ccnc(-c3ccn(-c4ccnc(Nc5ccn(C)n5)n4)n3)c2)C1=O` (racemic) [Example 30, (R,S)-3-Hydroxy-1-methyl-3-(2-(1-(2-((1-methyl-1H-pyrazol-3-yl)amino)pyrimidin-4-yl)-1H-pyrazol-3-yl)pyridin-4-yl)pyrrolidin-2-one], the results for the IC50 in assay [1] and in assay [2] (setting [3]) were < 100 nM and 100 to 500 nM, respectively.

With `CCn1cc(Nc2nccc(-c3csc(-c4cccc([C@]5(O)CCN(C)C5=O)c4)n3)n2)c(C)n1` [Example 270, (R)-3-(3-(4-(2-((1-Ethyl-3-methyl-1H-pyrazol-4-yl)amino)pyrimidin-4-yl)thiazol-2-yl)phenyl)-3-hydroxy-1-methylpyrrolidin-2-one], the IC50 in assay [1] and in assay [2] (setting [3]) was < 100 nM throughout.

For `Cc1cccc(Nc2nccc(-c3csc(-c4cccc([C@]5(O)CCN(C)C5=O)c4)n3)n2)n1` [Example 48, (R)-3-hydroxy-1-methyl-3-(3-(4-(2-((6-methylpyridin-2-yl)amino)pyrimidin-4-yl)thiazol-2-yl)phenyl)pyrrolidin-2-one], the 50% inhibitory concentration (IC50) in assay [1] is < 100 nM; in assay [2] (setting [3]), > 501 nM.
